According to patent publication US12594335B2, “Platinum-based drug-/photosensitizer-loaded protein nanoparticle, and preparation method therefor and application thereof” (SOOCHOW UNIVERSITY, priority 2020, dated 2026):

Columns and labels:
[1] = Serum biochemical indexes of liver and kidney functions; format: in vivo, Balb/c mice; conditions: 5 mg/kg Pt i.v. every other day, 3 times; serum on day 7, 14, 21, 28
Description: Inspection of biochemical indexes after action of nanoparticles: In order to determine the toxicity of drugs during metabolism in vivo, biochemical indexes of liver and kidney functions were investigated. […]

[2] = In-vitro chemical stability (UV absorbance of Ce6 within 72 h); format: physicochemical; conditions: water, phosphate buffer pH 5.5, pH 7.4, culture medium with 10% fetal bovine serum
Description: In-vitro stability of nanoparticles: (1) Chemical stability of nanoparticles: taking 0.1 mL of a nanoparticle solution with the concentration of Ce6 at 20 μmol/L and 0.1 mL of a free Ce6 solution with a concentration of 20 μmol/L, respectively, and adding them respectively to 2.9 mL of pure water, a phosphate buffer with pH 5.5, a phosphate buffer with pH 7.4, and a RPMI 1640 culture medium containing 10% fetal bovine serum; and storing at room temperature and away from light, with 3 copies for each environment. A UV-vis spectrophotometer was used to measure the absorbance change of Ce6 within 72 h.

[3] = Photostability under 660 nm laser irradiation; format: physicochemical
Description: (2) Photostability of nanoparticles: taking 0.1 mL of a nanoparticle solution with the concentration of Ce6 at 20 μmol/L and 0.1 mL of a free Ce6 solution with a concentration of 20 μmol/L, respectively, and adding them respectively to 2.9 mL of pure water, a phosphate buffer with pH 5.5, and a phosphate buffer with pH 7.4; and using a 660 nm laser with the power of 0.15 W/cm^2 to irradiate the solutions once every 30 s, and immediately measuring the ultraviolet absorption value with a UV-vis spectrophotometer until full 5 min of irradiation.

decrease of UV absorption with time [2] | photostability ([3]; 0.15 W/cm^2, up to 5 min, deionized water, pH 5.5 and pH 7.4 buffers) | time to completed photobleaching ([3]; acidic environment, 0.15 W/cm^2) [s] | Compound | kidney indexes Urea and Crea [1] | liver indexes (ALT, AST, ALP) [1]
 |  |  | N.N.[Cl][Pt][Cl] [free CDDP, cis-dichlorodiammine platinum (II)] | increased rapidly | changed greatly
20%-40% | photobleached quickly | ≤ 120 | chlorin e6 [free Ce6] |  | 
